One experiment deals with RT112 cells. The experiment can be described thus: In vitro binding of [^68Ga]AJ647 to RT112 cells. Format: cell-based. The following applies: 1 × 10^6 cells, ~1 μCi, 30 min, 4°C, means ± SD, n = 4. On the procedure:
In vitro binding of [^68Ga]AJ647 to T24, SCaBER, RT112, UC9, UC14, and HT1376 cells was determined by incubating 1 × 10^6 cells with ~1 μCi of [^68Ga]AJ647 for 30 min at 4°C. After incubation, cells were washed three times with ice-cold PBS containing 0.1% Tween 20 and counted on an automated gamma counter. All cell radioactivity uptake studies were performed in quadruplicate for each cell line and repeated three times.

Another experiment relates to HT1376 tumor xenograft. The experiment can be described thus: TE and EV therapy response study, HT1376 xenograft. The class given is in vivo, NSG mice. The following applies: for mice showing a drop in [^68Ga]AJ647 uptake: day 6. Here is the method: Mice with tumor volumes of ~100 to 150 mm^3 were injected with ~200 μCi [7.4 megabecquerels (MBq)] of [^68Ga]AJ647 in […] of 5% ethanol in saline intravenously and anesthetized under 2.5% isoflurane. PET-computed tomography (CT) images were acquired at 60 min after radiotracer injection at 5 min per bed in an ARGUS small-animal PET/CT scanner (Sedecal, Madrid, Spain) as described previously (n = 3, unless otherwise noted). PET-MR images were acquired on a simultaneous 7T Bruker PET-MR scanner. Dynamic imaging was conducted to evaluate the PK of [^68Ga]AJ647. [^68Ga]AJ647 was injected (with the help of a catheter) after mice were anesthetized under 2.5% isoflurane on the equipment bed. All PET data were reconstructed using the two-dimensional (2D) ordered subset expectation maximization algorithm and corrected for radioactive decay and dead times. The SUV values were calculated by finding %IA on the basis of a calibration factor obtained from a known radioactive quantity and then normalizing by mice weight. Amide software was used to derive SUV values by drawing the region of interest to closely fit tumors. In particular, MR images were used to identify tumor boundaries manually; these boundaries were transferred to co-registered PET images to derive SUVs. This process was repeated for each mouse individually in a blinded fashion. For the change in accessible Nectin-4 following EV treatment, ΔSUV was calculated by subtracting baseline (pre-treatment) uptake from posttherapy uptake of [^68Ga]AJ647. TE was quantified by normalizing this change by initial SUV in the same subject controls. Image fusion, visualization, and 3D rendering were accomplished using Amira 2020.3.1 (FEI, Hillsboro, OR).
Male NSG (n = 35) mice were inoculated with 4 million HT1376 cells at day 0. On day 23 (average tumor volume, 170 ± 22 mm^3), mice were randomized to receive either saline or a single dose of EV (6 or 15 mg/kg) intravenously (n = 10 for each group). Mice (n = 10) from each dose group were imaged on days 22 (pre-EV) and 29 (6 days post-EV). Saline mice (n = 5) were imaged on day 25 to serve as temporal and treatment control. Mouse body weight and tumor measurements were recorded until saline group tumors reached 1500 mm^3 in average size. Responders and nonresponders were identified using mRECIST for mice published elsewhere ([34]). Briefly, the percentage change in volume relative to the baseline: % tumor volume change (ΔVolt) = 100% × [(Vt − Vinitial)/Vinitial]. BestResponse was the lowest ΔVolt for t ≥ 10 days. For each time t, the average ΔVolt from t = 0 to t was calculated, with the BestAvgResponse defined as the lowest average ΔVolt for t ≥ 10 days. mRECIST, adapted from RECIST21, assigned response labels when both the BestResponse and BestAvgResponse conditions are met at the same time. A modified complete response is defined when BestResponse is less than −95% and BestAvgResponse is less than −40%. A modified partial response is assigned when BestResponse is less than −50% and BestAvgResponse is less than −20%. Modified stable disease is defined when BestResponse is less than 35% and BestAvgResponse is less than 30%. Modified progressive disease is assigned when none of these criteria are satisfied.
We defined modified progressive disease as nonresponders (0 response) and stable disease or better as responders (1 response). […]

As to `CSCC[C@@H]1NC(=O)[C@@H]2CSCCC(=O)N3CN(CN(C3)C(=O)CCSC[C@H](NC(=O)CCOCCOCCOCCOCCOCCOCCOCCOCCOCCOCCOCCOCCNC(=O)CN3CCN(CC(=O)O)CCN(CC(=O)O)CC3)C(=O)N3CCC[C@H]3C(=O)N[C@@H](Cc3cccc4ccccc34)C(=O)N[C@@H](CC(=O)O)C(=O)N2)C(=O)CCSC[C@@H](C(N)=O)NC(=O)[C@H](Cc2c[nH]c3ccccc23)NC(=O)[C@@H]2C[C@@H](O)CN2C(=O)[C@@H]2CCCN2C(=O)[C@H]([C@@H](C)O)NC(=O)[C@H](CO)NC(=O)[C@H](Cc2c[nH]c3ccccc23)NC(=O)[C@@H](CC(=O)O)NC(=O)[C@H](CCCCNC(=N)N)NC1=O` [[^68Ga]AJ647, metal not drawn], in the experiment on RT112 cells, the “[^68Ga]AJ647 uptake” value is 1.9 ± 0.18 %IA.
enfortumab vedotin [EV]: the “mice showing a drop in [^68Ga]AJ647 uptake” value is 5 of 10 in the experiment with HT1376 tumor xenograft (EV 6 mg/kg) and 9 of 10 in the experiment with HT1376 tumor xenograft (EV 15 mg/kg). Further, the final tumor volume in the experiment on HT1376 tumor xenograft (EV-treated mice with higher TE, in mm³ (unit assumed)) is listed as 324.9 ± 194.6; in the experiment with HT1376 tumor xenograft (EV-treated mice with less than 30% TE) it was 759.4 ± 455. In addition, in the experiment on HT1376 tumor xenograft (single dose EV 6 or 15 mg/kg, n = 10 per group, more pronounced at 15 mg/kg), the tumor growth result is listed as “Tumor growth inhibition was observed in both groups”.
